Molecular target: H1047R PIK3CA enzyme (Homo sapiens, UniProt P42336, H1047R)
Test: ADP-Glo Biochemical PIK3CA Kinase Assay

H1047R PIK3CA enzyme, sequence (P42336 whole entry H1047R): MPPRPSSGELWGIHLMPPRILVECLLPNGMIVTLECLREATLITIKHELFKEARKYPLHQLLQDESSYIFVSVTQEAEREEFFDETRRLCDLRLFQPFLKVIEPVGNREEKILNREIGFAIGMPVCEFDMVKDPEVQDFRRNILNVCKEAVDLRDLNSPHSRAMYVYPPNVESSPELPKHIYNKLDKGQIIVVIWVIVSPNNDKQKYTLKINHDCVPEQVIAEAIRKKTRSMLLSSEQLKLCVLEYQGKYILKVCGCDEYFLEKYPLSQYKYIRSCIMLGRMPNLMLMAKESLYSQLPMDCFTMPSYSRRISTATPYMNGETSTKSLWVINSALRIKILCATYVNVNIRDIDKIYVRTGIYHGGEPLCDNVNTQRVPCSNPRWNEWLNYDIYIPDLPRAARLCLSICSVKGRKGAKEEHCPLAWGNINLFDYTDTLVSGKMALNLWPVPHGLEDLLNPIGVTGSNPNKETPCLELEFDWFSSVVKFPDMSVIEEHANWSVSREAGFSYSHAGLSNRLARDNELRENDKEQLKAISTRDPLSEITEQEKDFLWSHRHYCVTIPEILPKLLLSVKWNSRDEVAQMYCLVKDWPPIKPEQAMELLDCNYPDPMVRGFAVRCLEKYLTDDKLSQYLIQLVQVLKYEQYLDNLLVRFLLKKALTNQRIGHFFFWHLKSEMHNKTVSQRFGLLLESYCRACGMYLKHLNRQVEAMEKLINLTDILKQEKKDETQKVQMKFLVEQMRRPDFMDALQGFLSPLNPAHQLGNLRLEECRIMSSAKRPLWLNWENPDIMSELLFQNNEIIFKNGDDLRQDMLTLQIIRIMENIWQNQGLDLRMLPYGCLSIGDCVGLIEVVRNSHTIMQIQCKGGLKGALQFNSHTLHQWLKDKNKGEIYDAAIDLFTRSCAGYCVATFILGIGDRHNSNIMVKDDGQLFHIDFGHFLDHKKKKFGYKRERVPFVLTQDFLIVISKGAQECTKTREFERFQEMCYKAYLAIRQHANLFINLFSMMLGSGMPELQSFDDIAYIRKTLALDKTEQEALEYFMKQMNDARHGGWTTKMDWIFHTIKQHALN
H1047R PIK3CA enzyme, sequence (P27986 whole entry partner): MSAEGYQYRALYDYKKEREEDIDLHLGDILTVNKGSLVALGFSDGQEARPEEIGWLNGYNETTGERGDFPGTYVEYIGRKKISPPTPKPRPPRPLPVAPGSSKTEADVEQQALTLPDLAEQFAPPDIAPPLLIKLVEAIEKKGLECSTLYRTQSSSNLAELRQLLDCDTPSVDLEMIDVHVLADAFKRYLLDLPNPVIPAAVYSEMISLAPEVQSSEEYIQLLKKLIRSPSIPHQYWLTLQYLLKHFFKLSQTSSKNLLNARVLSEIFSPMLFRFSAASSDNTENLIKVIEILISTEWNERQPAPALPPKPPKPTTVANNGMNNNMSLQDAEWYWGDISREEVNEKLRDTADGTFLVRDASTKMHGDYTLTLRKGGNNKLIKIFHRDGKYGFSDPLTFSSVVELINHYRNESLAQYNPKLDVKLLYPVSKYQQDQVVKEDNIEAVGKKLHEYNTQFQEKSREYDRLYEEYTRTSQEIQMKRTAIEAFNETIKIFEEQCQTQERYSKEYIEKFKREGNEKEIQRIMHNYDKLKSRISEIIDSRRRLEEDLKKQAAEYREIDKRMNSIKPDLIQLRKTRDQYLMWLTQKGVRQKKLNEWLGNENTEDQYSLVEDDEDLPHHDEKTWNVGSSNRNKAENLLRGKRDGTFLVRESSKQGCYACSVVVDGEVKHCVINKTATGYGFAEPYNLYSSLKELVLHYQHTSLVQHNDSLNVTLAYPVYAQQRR

IC50	SMILES
10000 to 100000 nM	O=C(Nc1cccc2c1C(C1CCCOC1)NC2=O)c1cc(F)cc(C(F)(F)F)c1 (racemic) [Compound I-1958]
1000 to 10000 nM	[2H]C1([2H])N(C(=O)Nc2cccc3c2[C@H](c2cc(F)ccc2Cl)NC3=O)c2ccc(F)cc2[C@@]1(O)C(F)(F)F (single isomer, unassigned) [Compound I-2593]
10000 to 100000 nM	O=C(Nc1cc(Br)cc2c1C(c1cc(F)ccc1Cl)NC2=O)c1ccccc1Cl (centres unmarked) [Compound I-477]
100 to 500 nM	CN1CCN(Cc2cc(NC(=O)c3cc(F)cc(C(F)(F)F)c3)c3c(c2)C(=O)NC3c2cc(F)ccc2Cl)CC1=O (centres unmarked) [Compound I-1235]
1000 to 10000 nM	CNC(=O)c1cc(NC(=O)c2csc3ccccc23)c2c(c1)C(=O)N[C@@H]2c1ccccc1C [Compound I-75, (R)-7-(Benzo[b]thiophene-3-carboxamido)-N-methyl-3-oxo-1-(o-tolyl)isoindoline-5-carboxamide]
≤ 100 nM	N#Cc1ncc(-c2cc(NC(=O)c3cc(F)cc(C(F)(F)F)c3)c3c(c2)C(=O)NC3c2cc(F)ccc2Cl)cn1 (centres unmarked) [Compound I-886]
10000 to 100000 nM	O=C1N[C@@H](c2cc(F)ccc2Cl)c2c(NC(=O)[C@H]3CCCCN3)cc(-c3ccc4ncnn4c3)cc21 [Compound I-2147]
≤ 100 nM	O=C(Nc1cc(-c2csc(C(=O)O)n2)cc2c1C(c1cc(F)ccc1Cl)NC2=O)c1cc(F)cc(C(F)(F)F)c1 (centres unmarked) [Compound I-1201]
1000 to 10000 nM	O=C1N[C@@H](c2cc(F)ccc2Cl)c2c(NC(=O)N3C[C@@](O)(C(F)(F)F)c4cc(F)ccc43)cc(N3CCCC3=O)cc21 (single isomer, unassigned) [Compound I-2667]
≤ 100 nM	N#Cc1nn(C(F)F)cc1-c1cc(NC(=O)c2cc(F)cc(C(F)(F)F)c2)c2c(c1)C(=O)N[C@H]2c1cc(F)ccc1Cl [Compound I-1890]
100 to 500 nM	C[S@](=O)(Cc1cc(NC(=O)c2cc(F)cc(C(F)(F)F)c2)c2c(c1)C(=O)N[C@@H]2c1cc(F)ccc1Cl)=NC#N (single isomer, unassigned) [Compound I-1561]
≤ 100 nM	N#CC1(n2cc(-c3cc(NC(=O)c4cc(F)cc(C(F)(F)F)c4)c4c(c3)C(=O)N[C@H]4c3cc(F)ccc3Cl)cn2)CC1 [Compound I-1886]
1000 to 10000 nM	N#C[C@H]1C[C@H](Oc2cc(NC(=O)c3cc(F)cc(C(F)(F)F)c3)c3c(c2)C(=O)N[C@@H]3c2cc(F)ccc2Cl)C1 (stereo in doubt) [Compound I-1304]
10000 to 100000 nM	O=C1CCC[C@@H]([C@H]2NC(=O)c3cccc(NC(=O)c4cc(F)cc(C(F)(F)F)c4)c32)C1 (single isomer, unassigned) [Compound I-2253]
1000 to 10000 nM	N#CCc1cc(NC(=O)N2C[C@](O)(C(F)(F)F)c3cc(F)ccc32)c2c(c1)C(=O)N[C@H]2c1cc(F)ccc1Cl (single isomer, unassigned) [Compound I-2625]
1000 to 10000 nM	C[C@H](C#N)Cn1cc(-c2cc(NC(=O)N3C[C@@H](O)c4cc(F)ccc43)c3c(c2)C(=O)N[C@H]3c2cc(F)ccc2Cl)cn1 (single isomer, unassigned) [Compound I-2502]
100 to 500 nM	CC(C)(O)C(O)c1cc(NC(=O)c2cc(F)cc(C(F)(F)F)c2)c2c(c1)C(=O)NC2c1cc(F)ccc1Cl (racemic) [Compound I-1307]
≤ 100 nM	Cc1cc2ncnn2cc1-c1cc(NC(=O)c2cc(F)cc(C(F)(F)F)c2)c2c(c1)C(=O)N[C@H]2c1cc(F)ccc1Cl [Compound I-1874]
≤ 100 nM	N#CC1CN(S(=O)(=O)Cc2cc(NC(=O)c3cc(F)cc(C(F)(F)F)c3)c3c(c2)C(=O)NC3c2cc(F)ccc2Cl)C1 (centres unmarked) [Compound I-1556]
1000 to 10000 nM	Cc1ccccc1C1NC(=O)c2cc(Br)cc(NC(=O)c3cc(F)cc(C4CC4)c3)c21 (centres unmarked) [Compound I-534]
10000 to 100000 nM	CC(C1CCN(C(=O)Nc2cccc3c2C(c2cc(F)ccc2Cl)NC3=O)C1)C(F)(F)F (mixture of isomers) [Compound I-2421]

IC50	SMILES
1000 to 10000 nM	Cc1nccn1-c1cc(NC(=O)N2C[C@](O)(C(F)(F)F)c3cc(F)ccc32)c2c(c1)C(=O)N[C@@H]2c1cc(F)ccc1Cl (single isomer, unassigned) [Compound I-2662]
500 to 1000 nM	N#Cc1cnccc1-c1cc(NC(=O)c2cc(F)cc(C(F)(F)F)c2)c2c(c1)C(=O)N[C@@H]2c1cc(F)ccc1Cl (stereo in doubt) [Compound I-1231]
≤ 100 nM	CNC(=O)n1cc(-c2cc(NC(=O)c3cc(F)cc(C(F)(F)F)c3)c3c(c2)C(=O)NC3c2cc(F)ccc2Cl)cn1 (centres unmarked) [Compound I-1505]
100 to 500 nM	O=C(Nc1cc(-c2cnn3ncnc3c2)cc2c1[C@@H](c1cc(F)ccc1Cl)NC2=O)c1cc(F)cc(C(F)(F)F)c1 [Compound I-1871]
≤ 100 nM	CS(=O)(=O)N1CCC[C@@H]1COc1cc(NC(=O)c2cc(F)cc(C(F)(F)F)c2)c2c(c1)C(=O)NC2c1cc(F)ccc1Cl (single isomer, unassigned) [Compound I-1378]
≤ 100 nM	O=C(Nc1cc(N2CCCC2=O)cc2c1C(c1cc(F)ccc1Cl)NC2=O)c1cc(F)cc(C(F)(F)F)c1 (centres unmarked) [Compound I-1273]
1000 to 10000 nM	O=C(Nc1cc(Br)cc2c1C(c1cc(F)ccc1Cl)NC2=O)c1cccc(C2CC2)c1 (centres unmarked) [Compound I-569]
≤ 100 nM	O=C1N[C@H](c2cc(F)ccc2Cl)c2c(NC(=O)N3C[C@](O)(C(F)(F)F)c4cc(F)ccc43)cc(F)cc21 (single isomer, unassigned) [Compound I-2631]
≤ 100 nM	Cn1ccc(-c2cc(NC(=O)c3cc(F)cc(C(F)(F)F)c3)c3c(c2)C(=O)NC3c2cc(F)ccc2Cl)cc1=O (centres unmarked) [Compound I-889]
10000 to 100000 nM	O=C1N[C@@H](c2cc(F)ccc2Cl)c2c(NC(=O)N3CCOCC(F)(F)C3)cc(Br)cc21 (single isomer, unassigned) [Compound I-2242]
1000 to 10000 nM	O=C(Nc1cc(/N=C2/N[C@@H](C(F)(F)F)CO2)cc2c1[C@@H](c1cc(F)ccc1Cl)NC2=O)c1cc(F)cc(C(F)(F)F)c1 (single isomer, unassigned) [Compound I-2390]
10000 to 100000 nM	N[C@@H]1CCC[C@H](C(=O)Nc2cc(-c3ccc4ncnn4c3)cc3c2C(c2cc(F)ccc2Cl)NC3=O)C1 (mixture of isomers) [Compound I-1844]
10000 to 100000 nM	O=C1NC(c2cc(F)ccc2Cl)c2c(NC(=O)N3CCSC(C(F)(F)F)C3)cccc21 (centres unmarked) [Compound I-2340]
1000 to 10000 nM	O=C1NC(c2cc(F)ccc2Cl)c2c1cc(-c1ccc3ncnn3c1)cc2-n1ccc2c(F)cc(C(F)(F)F)cc2c1=O (centres unmarked) [Compound I-2016]
10000 to 100000 nM	O=C1NC(c2cc(F)ccc2Cl)c2c(NC(=O)c3[nH]nnc3CC(F)(F)F)cccc21 (centres unmarked) [Compound I-2194]
500 to 1000 nM	CC(C)(C)C1CCCN1C(=O)Nc1cccc2c1C(c1cc(F)ccc1Cl)NC2=O (single isomer, unassigned) [Compound I-2432]
10000 to 100000 nM	O=C1NC(c2cc(F)ccc2Cl)c2c(NC(=O)N3c4ccccc4C(O)C34CC4)cccc21 (mixture of isomers) [Compound I-2280]
10000 to 100000 nM	O=C1NC(c2cc(F)ccc2Cl)c2c1cc(-c1ccc3ncnn3c1)cc2N(CC(=O)N1CCCCC1)C(=O)C(F)(F)F (centres unmarked) [Compound I-2001]
100 to 500 nM	O=C(Nc1cc(Oc2ccncn2)cc2c1C(c1cc(F)ccc1Cl)NC2=O)c1cc(F)cc(C(F)(F)F)c1 (centres unmarked) [Compound I-1052]
1000 to 10000 nM	COc1ccc([C@H](C)N2C(=O)c3cc(Br)cc(N)c3[C@@H]2c2cc(F)ccc2Cl)cc1 (racemic) [Compound I-863]

Source: patent US12581252B2, “Substituted pyrrolo[3,4-b]pyridines as PI3K-α inhibitors” (Relay Therapeutics, Inc., priority 2020, dated 2026)
